The supplement of paper PMC10733146

Tests used:
Assay in all cases: viability relative to DMSO control (fraction); higher = less drug effect (more viable cells)
Conditions in all cases: 48 h
[1] = test system: primary AML patient cells (S007)
In short: (§1)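 In 384-well plates with compounds pre-plated at five concentrations (one well per concentration), primary mononuclear tumour cells were plated at 4 × 10^4 cells per well. The cells came from blood or bone marrow by Ficoll isolation or from processed lymph node, and were used fresh or cryopreserved. Culture ran for 48 h at 37 °C and 5% CO2 in RPMI-1640 containing penicillin/streptomycin, L-glutamine and human serum. Viability was read as CellTiter-Glo luminescence, normalised to the median of 16 inner DMSO wells.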

[2] = test system: primary AML patient cells (S079)
In short: as §1

[3] = test system: primary AML patient cells (S027)
In short: as §1

[4] = test system: primary AML patient cells (S019)
In short: as §1

[5] = test system: primary AML patient cells (S071)
In short: as §1

[6] = test system: primary AML patient cells (S091)
In short: as §1

[7] = test system: primary MCL patient cells (S041)
In short: as §1

[8] = test system: primary T-PLL patient cells (S008)
In short: as §1

[9] = test system: primary AML patient cells (S002)
In short: as §1

[10] = test system: primary AML patient cells (S025)
In short: as §1

[11] = test system: primary AML patient cells (S037)
In short: as §1

[12] = test system: primary AML patient cells (S072)
In short: as §1

[13] = test system: primary DLBCL patient cells (S082)
In short: as §1

[14] = test system: primary AML patient cells (S089)
In short: as §1

[15] = test system: primary AML patient cells (S009)
In short: as §1

[16] = test system: primary T-NHL patient cells (S058)
In short: as §1

[17] = test system: primary DLBCL patient cells (S049)
In short: as §1

[18] = test system: primary DLBCL patient cells (S076)
In short: as §1

[19] = test system: primary AML patient cells (S055)
In short: as §1

SMILES: CN1CC[C@H](c2c(O)cc(O)c3c(=O)cc(-c4ccccc4Cl)oc23)[C@H](O)C1 [Flavopiridol]
- viability ([1]; 0.0032 µM): 0.945
- viability ([1]; 0.016 µM): 0.68
- viability ([1]; 0.08 µM): 0.624
- viability ([1]; 0.4 µM): 0.127
- viability ([1]; 2 µM): 0.0782
- viability ([2]; 0.0032 µM): 1.01
- viability ([2]; 0.016 µM): 0.979
- viability ([2]; 0.08 µM): 0.878
- viability ([2]; 0.4 µM): 0.112
- viability ([2]; 2 µM): 0.0261
- viability ([3]; 0.0032 µM): 1.04
- viability ([3]; 0.016 µM): 0.947
- viability ([3]; 0.08 µM): 0.842
- viability ([3]; 0.4 µM): 0.0906
- viability ([3]; 2 µM): 0.0365
- viability ([4]; 0.0032 µM): 1.08
- viability ([4]; 0.016 µM): 0.769
- viability ([4]; 0.08 µM): 0.961
- viability ([4]; 0.4 µM): 0.198
- viability ([4]; 2 µM): 0.0784
- viability ([5]; 0.0032 µM): 0.914
- viability ([5]; 0.016 µM): 0.833
- viability ([5]; 0.08 µM): 0.54
- viability ([5]; 0.4 µM): 0.0926
- viability ([5]; 2 µM): 0.0942
- viability ([6]; 0.0032 µM): 0.917
- viability ([6]; 0.016 µM): 0.921
- viability ([6]; 0.08 µM): 0.604
- viability ([6]; 0.4 µM): 0.113
- viability ([6]; 2 µM): 0.0958
- viability ([7]; 0.0032 µM): 1.01
- viability ([7]; 0.016 µM): 0.914
- viability ([7]; 0.08 µM): 0.892
- viability ([7]; 0.4 µM): 0.0723
- viability ([7]; 2 µM): 0.0378
- viability ([8]; 0.0032 µM): 0.953
- viability ([8]; 0.016 µM): 1.03
- viability ([8]; 0.08 µM): 0.916
- viability ([8]; 0.4 µM): 0.804
- viability ([8]; 2 µM): 0.0718
- viability ([9]; 0.0032 µM): 1.02
- viability ([9]; 0.016 µM): 0.927
- viability ([9]; 0.08 µM): 0.69
- viability ([9]; 0.4 µM): 0.241
- viability ([9]; 2 µM): 0.244
- viability ([10]; 0.0032 µM): 0.958
- viability ([10]; 0.016 µM): 0.861
- viability ([10]; 0.08 µM): 0.691
- viability ([10]; 0.4 µM): 0.13
- viability ([10]; 2 µM): 0.0473
- viability ([11]; 0.0032 µM): 0.979
- viability ([11]; 0.016 µM): 0.948
- viability ([11]; 0.08 µM): 0.914
- viability ([11]; 0.4 µM): 0.633
- viability ([11]; 2 µM): 0.328
- viability ([12]; 0.0032 µM): 1.17
- viability ([12]; 0.016 µM): 1.05
- viability ([12]; 0.08 µM): 0.754
- viability ([12]; 0.4 µM): 0.156
- viability ([12]; 2 µM): 0.0607
- viability ([13]; 0.0032 µM): 1.03
- viability ([13]; 0.016 µM): 0.977
- viability ([13]; 0.08 µM): 1.11
- viability ([13]; 0.4 µM): 0.103
- viability ([13]; 2 µM): 0.0254
- viability ([14]; 0.0032 µM): 0.742
- viability ([14]; 0.016 µM): 1.01
- viability ([14]; 0.08 µM): 0.362
- viability ([14]; 0.4 µM): 0.0371
- viability ([14]; 2 µM): 0.0437
- viability ([15]; 0.0032 µM): 0.95
- viability ([15]; 0.016 µM): 0.898
- viability ([15]; 0.08 µM): 0.619
- viability ([15]; 0.4 µM): 0.199
- viability ([15]; 2 µM): 0.0899

SMILES: CC(C)c1cc(-c2n[nH]c(=O)n2-c2ccc3c(ccn3C)c2)c(O)cc1O [Ganetespib]
- viability ([1]; 2 µM): 0.0928
- viability ([2]; 0.0032 µM): 0.983
- viability ([2]; 0.016 µM): 0.825
- viability ([2]; 0.08 µM): 0.398
- viability ([2]; 0.4 µM): 0.352
- viability ([2]; 2 µM): 0.332
- viability ([4]; 0.0032 µM): 0.923
- viability ([4]; 0.016 µM): 0.682
- viability ([4]; 0.08 µM): 0.411
- viability ([4]; 0.4 µM): 0.465
- viability ([4]; 2 µM): 0.444
- viability ([16]; 0.0032 µM): 1.01
- viability ([16]; 0.016 µM): 0.978
- viability ([16]; 0.08 µM): 0.943
- viability ([16]; 0.4 µM): 1.14
- viability ([16]; 2 µM): 1.12
- viability ([5]; 0.0032 µM): 0.892
- viability ([5]; 0.016 µM): 0.357
- viability ([5]; 0.08 µM): 0.142
- viability ([5]; 0.4 µM): 0.167
- viability ([5]; 2 µM): 0.164
- viability ([6]; 0.0032 µM): 0.926
- viability ([6]; 0.016 µM): 0.901
- viability ([6]; 0.08 µM): 0.364
- viability ([6]; 0.4 µM): 0.259
- viability ([6]; 2 µM): 0.26
- viability ([7]; 0.0032 µM): 0.98
- viability ([7]; 0.016 µM): 0.846
- viability ([7]; 0.08 µM): 0.533
- viability ([7]; 0.4 µM): 0.406
- viability ([7]; 2 µM): 0.404
- viability ([8]; 0.0032 µM): 0.937
- viability ([8]; 0.016 µM): 1
- viability ([8]; 0.08 µM): 0.939
- viability ([8]; 0.4 µM): 0.988
- viability ([8]; 2 µM): 0.961
- viability ([9]; 0.0032 µM): 0.957
- viability ([9]; 0.016 µM): 0.414
- viability ([9]; 0.08 µM): 0.328
- viability ([9]; 0.4 µM): 0.326
- viability ([9]; 2 µM): 0.323
- viability ([17]; 0.0032 µM): 0.955
- viability ([17]; 0.016 µM): 0.989
- viability ([17]; 0.08 µM): 0.888
- viability ([17]; 0.4 µM): 0.54
- viability ([17]; 2 µM): 0.537
- viability ([10]; 0.0032 µM): 0.936
- viability ([10]; 0.016 µM): 0.579
- viability ([10]; 0.08 µM): 0.343
- viability ([10]; 0.4 µM): 0.334
- viability ([11]; 0.0032 µM): 0.976
- viability ([11]; 0.016 µM): 0.988
- viability ([11]; 0.08 µM): 0.947
- viability ([11]; 0.4 µM): 0.979
- viability ([11]; 2 µM): 0.937
- viability ([18]; 0.0032 µM): 1.12
- viability ([18]; 0.016 µM): 0.904
- viability ([18]; 0.08 µM): 0.467
- viability ([18]; 0.4 µM): 0.407
- viability ([18]; 2 µM): 0.396
- viability ([12]; 0.0032 µM): 1.01
- viability ([12]; 0.016 µM): 0.884
- viability ([12]; 0.08 µM): 0.412
- viability ([12]; 0.4 µM): 0.39
- viability ([12]; 2 µM): 0.377
- viability ([13]; 0.0032 µM): 1.02
- viability ([13]; 0.016 µM): 1.12
- viability ([13]; 0.08 µM): 1.09
- viability ([13]; 0.4 µM): 1.04
- viability ([13]; 2 µM): 1.02
- viability ([14]; 0.0032 µM): 0.692
- viability ([14]; 0.016 µM): 0.371
- viability ([14]; 0.08 µM): 0.182
- viability ([14]; 0.4 µM): 0.254
- viability ([14]; 2 µM): 0.215
- viability ([15]; 0.0032 µM): 0.953
- viability ([15]; 0.016 µM): 0.743
- viability ([15]; 0.08 µM): 0.542
- viability ([15]; 0.4 µM): 0.56
- viability ([15]; 2 µM): 0.567
- viability ([19]; 0.0032 µM): 0.976
- viability ([19]; 0.016 µM): 0.928
- viability ([19]; 0.08 µM): 0.403
- viability ([19]; 0.4 µM): 0.368
- viability ([19]; 2 µM): 0.337
